Experiments:
primary fibroblasts [1] = assay: Alamar Blue proliferation assay; type: cell-based
Description: Alamar Blue Proliferation Assay Fibroblasts were seeded at a density of 2×10^4 cells/well in 96 well plates (Nuns, Sydney Australia) and cultured at 37° C., 5% CO2 for 24 hours Media was aspirated and cells were washed twice in phosphate buffered saline. The following treatments were used: • (i) No treatment control (NTC)—DMEM (Invitrogen, Sydney Australia) containing Penicillin at 500 U/mL, Streptomycin and Amphotericin B (Sigma-Aldrich, MO) at 0.5 mg/mL, 10% Fetal Bovine Serum. • (ii) 5 mM of Deferiprone dissolved in control media. • (iii) 10 mM Deferiprone dissolved in control media. • (iv) 20 mM Deferiprone dissolved in control media. Readings were taken at 4, 24, 48 and 72 hours. At each time point media was aspirated and fresh control media with 10% Alamar Blue was added and incubated in the dark for 6 hours at 37° C. 5% CO2. The plate was then read at 570 and 595 nm according to manufacturer's instructions. Fibroblasts proliferation was measured using the Alamar Blue reduction assay. The assay is based on use of resazurin, a non-toxic, cell permeable compound which is blue in colour and non-fluorescent. Resazurin is reduced to resorufin a compound that is red in colour and highly fluorescent. Viable cells continuously convert resazurin to resorufin, increasing the overall fluorescence and colour of the media surrounding cells.

primary fibroblasts [2] = assay: Fibroblast wound healing protocol (gap closure, migration); type: cell-based
Description: 1. Fibroblast Wound Healing Protocol Fibroblasts were stained with CellTrace Proliferation Kit (Thermo-Fisher Scientific, Life Technologies, CA) and prepared in a suspension of 3×10^5 cells/mL of DMEM (Invitrogen, Sydney Australia) containing Penicillin at 500 U/mL, Streptomycin and Amphotericin B (Sigma-Aldrich, MO) at 0.5 mg/mL, 10% Fetal Bovine Serum. 70 uL of this suspension were seeded into each chamber inserts of the Ibidi culture-insert 24 (Ibidi GmbH, Munich, Germany) and cultured for 12 hours at 37° C., 5% CO2. The inserts were then removed with sterile forceps and cells washed twice in phosphate buffered saline. The following treatments were used: • (i) No treatment control (NTC) DMEM (Invitrogen, Sydney Australia) containing Penicillin at 500 U/mL, Streptomycin and Amphotericin B (Sigma-Aldrich, MO) at 0.5 mg/mL 10% Fetal Bovine Serum. • (ii) 5 mM of Deferiprone dissolved in control media. • (iii) 10 mM Deferiprone dissolved in control media. • (iv) 20 mM Deferiprone dissolved in control media. The effects on cells were recorded in real time at 37° C., 5% CO2 and imaged at intervals of 0, 8, 24 and 48 hours using Zeiss LSM700 Confocal (Carl Zeiss, Oberkochen, Germany) until gap closure. Image properties: DAPI blue signal; 405 nm laser; line step 2; line average 4; bit 12; zoom 0.5; 512×512 pixels; time series.

[3] = tested on: primary human nasal epithelial cells (HNECs); assay: Cytotoxicity, LDH assay, HNECs; type: cell-based; details: exposure 1 h, 2 h, 3 h, 4 h, 5 h and 6 h; deferiprone 1, 5, 10, 20 mM (p>0.05); Triton X-100 0.5%
Excerpt: Primary human nasal epithelial […] harvested from nasal polyps by gentle brushing in a method described by Ramezanpour et al. (2016) “Th17 cytokines disrupt the airway mucosal barrier in chronic rhinosinusitis” Mediators of inflammation; 2016: 9798206. doi: 10.1155/2016/9798206. Extracted cells were suspended in Bronchial Epithelial Growth Media (BEGM, CC-3170, Lonza, Walkersville, Md., USA), supplemented with 2% Ultroser G (Pall Corporation, Port Washington, N.Y., USA). The cell suspension was depleted of macrophages using anti-CD68 (Dako, Glostrup, Denmark) coated culture dishes, and HNECs were maintained with B-ALITM growth medium (Lonza, Walkersville, USA) in collagen coated flasks (Thermo Scientific, Walthman, Mass., USA) in a cell incubator at 37° C. with 5% CO2. Primary human fibroblasts or epithelial cells were grown in DMEM and BEGEM (Lonza, Walkersville, USA) medium respectively. Cells were maintained in a fully humidified incubator with 5% CO2 at 37° C. prior to cytotoxicity studies. […] The optical density (OD) was measured at 490 Mil on a FLUOstar OPTIMA plate reader (BMG Labtech, Ortenberg, Germany), Cell culture studies were performed as three independent experiments.

[4] = tested on: primary human nasal fibroblasts; assay: Cytotoxicity, LDH assay, nasal fibroblasts; type: cell-based; details: exposure 1 h, 2 h, 3 h, 4 h, 5 h and 6 h; deferiprone 1, 5, 10, 20 mM (p>0.05); Triton X-100 0.5%
Description: Sinonasal tissue was biopsied from paranasal sinus mucosa and transferred to a 6-well culture plate with 2 ml Dulbecco's Modified Eagle's medium (DMEM, Invitrogen, UK) supplemented with 1:100 L-glutamine, 10% Fetal bovine serum (FBS, Sigma-Aldrich), 1:100 ascorbic acid 2-phosphate, and 1:100 penicillin streptomycin (Gibco, Life Technologies) and incubated. Every 2-3 days, the tissue was washed gently with 1 ml phosphate-buffered saline (PBS) and medium was replaced with 1.5 ml fresh medium until fibroblasts became confluent after approximately 2 weeks. Once confluent, fibroblasts were washed with 2 ml PBS, trypsinized and collected followed by centrifugation at 400×g for 8 minutes. The supernatant was removed and pellet resuspended in 1 ml PBS along with 50 μl Dynabeads Epithelial Enrich (Invitrogen, USA). The tube was wrapped in parafilm and placed on a rotor mixer for 20 minutes at room temperature (RT). Supernatant containing fibroblasts were transferred to a T25 tissue culture flask and the tube containing the remaining beads discarded Primary human fibroblasts or epithelial cells were grown in DMEM and BEGEM (Lonza, Walkersville, USA) medium respectively. […] The optical density (OD) was measured at 490 Mil on a FLUOstar OPTIMA plate reader (BMG Labtech, Ortenberg, Germany), Cell culture studies were performed as three independent experiments.

HNEC-ALI cultures = assay: Wound healing (migration) scratch assay, HNEC-ALI; type: cell-based, human; details: 1, 5, 10, 20 mM for up to 68 hours; untreated healed by 68 hours
Description: HNECs were grown until 80% confluent then harvested for seeding onto collagen coated 6.5 mm permeable Transwell plates (BD Biosciences, San Jose, Calif., USA) at a density of 5×10^4 cells per well. Cells were maintained with B-ALI™ growth medium for 2-3 days in a cell incubator at 37° C. with 5% CO2. On day 3 after seeding, the apical media was removed and the basal media replaced with B-ALI™ differentiation media, exposing the apical cell surface to the atmosphere. Human nasal epithelial cultures at air liquid interface (HNEC-ALI) were maintained for a minimum of 14 days for development of tight junctions and 28 days for cilia generation. In the fibroblast wound closure assay, fibroblasts were seeded in 24 well plates, stained with CellTrace™ Violet (Invitrogen/Life Technologies, USA) and allowed to get 80% confluent in 24 hours. A straight vertical scratch was made down through the fibroblast and HNEC-ALI cell monolayers by using a 200 μl pipette tip. […] The wound closure (cell migration) was recorded using time-lapse LSM700 confocal scanning laser microscopy (Zeiss Microscopy, Germany), with an image recorded every 4 hours in a temperature and CO2 controlled chamber. Data was analysed using Image.

[5] = tested on: primary human nasal fibroblasts; assay: Wound healing (migration) scratch assay, fibroblasts; type: cell-based; details: for wound healing of primary fibroblasts: after 44 hours
Description: In the fibroblast wound closure assay, fibroblasts were seeded in 24 well plates, stained with CellTrace™ Violet (Invitrogen/Life Technologies, USA) and allowed to get 80% confluent in 24 hours. A straight vertical scratch was made down through the fibroblast and HNEC-ALI cell monolayers by using a 200 μl pipette tip. The media and cell debris was aspirated carefully and culture media with different concentrations of deferiprone (1 mM, 5 mM, 10 mM, 20 mM) or media only (negative control) added to each well for 72 hours. At time zero, cells were treated with 1 μg/ml mitomycin (Accord Healthcare Inc, NDC 16729-108-11, USA) to inhibit cell proliferation. The wound closure (cell migration) was recorded using time-lapse LSM700 confocal scanning laser microscopy (Zeiss Microscopy, Germany), with an image recorded every 4 hours in a temperature and CO2 controlled chamber. Data was analysed using Image.

[6] = tested on: IL-6 production in human nasal epithelial cells; assay: IL-6 ELISA, HNECs with Poly (I:C); type: cell-based; details: 24 hours, in the presence of Poly (I:C) LMW
Description: (§1) Supernatants were collected from HNECs and fibroblasts after 24 hours of exposure with different concentrations of deferiprone in the presence/absence of the pro-inflammatory agent Poly (I:C) (10 μg/ml) or IL-1β (10 ng/ml Sigma, Saint Louis, USA) respectively. Interleukin-6 (IL-6) protein levels were estimated with an ELISA kit using rat anti-human IL-6 antibodies (BD Biosciences, New Jersey, USA), according to the manufacturer's instructions. All measurements were performed in duplicate using a FLUOstar OPTIMA plate reader (BMG Labtech, Ortenberg, Germany). The tissue sample concentration was calculated from a standard curve and corrected for protein concentration.

[7] = tested on: IL-6 production in nasal fibroblast cells; assay: IL-6 ELISA, nasal fibroblasts with IL-1β; type: cell-based, human; details: in the presence or absence of IL-13 (so in the source), after 24 hours
Description: as §1

[8] = tested on: type I collagen release in primary human nasal fibroblasts; assay: Collagen assay (procollagen type I C-peptide ELISA); type: cell-based; details: different concentrations (1, 5, 10, 20 mM)
Description: Primary human nasal fibroblasts were seeded in 24-well tissue-culture plates at a density of 5×10^5 grown in DMEM until confluent. […] Following treatment, the supernatant was collected and the protein level of type I collagen was measured with a procollagen type I C-peptide ELISA kit (Takara Bio Inc, Otsu, Japan). Experimental procedures followed the manufacturer's instruction. Briefly, 20 μl of culture medium and 100 μl of the antibody-POD conjugate solution were sequentially added into microtiter plates and reacted for 3 hours at 37° C. After 4× washing with washing buffer solution (1×PBST), 100 μl of the substrate solution was added and incubated for 15 minutes at RT. Finally, the stop solution (100 μl) was added and corresponding absorbance was recorded at 450 nm using a FLUOstar OPTIMA plate reader (BMG Labtech, Ortenberg, Germany).

Cc1c(O)c(=O)ccn1C [deferiprone, 3-hydroxy-1,2-dimethylpyridin-4(1H)-one]
inhibition of fibroblast proliferation (Alamar Blue) (primary fibroblasts [1]; 5, 10, 20 mM deferiprone, readings at 4, 24, 48, 72 hours, 2-way ANOVA): significant dose dependent effect
time course of inhibition of proliferation (primary fibroblasts [1]; occurred over a period of at least 24 to 72 hours): time dependent
closure of void in fibroblasts (primary fibroblasts [2]; 20 mM deferiprone, up to 48 hours, control cells close the void after 48 hours): minimal closure
fibroblast migration (primary fibroblasts [2]; within 48 hours, 5, 10, 20 mM): inhibited fibroblast migration
LDH release (cytotoxicity) in HNECs [3]: no significant increase in LDH release
LDH release (cytotoxicity) in fibroblasts [4]: no significant increase in LDH release
wound healing in HNEC-ALI cultures (HNEC-ALI cultures): did not show any significant delay in wound healing
wound healing of primary fibroblasts ([5]; 5 mM): significantly delayed healing
wound healing of primary fibroblasts ([5]; 10 mM): significantly delayed healing
wound closure of primary fibroblasts ([5]; 20 mM, at 28 h and all time points thereafter, untreated closed after 44 hours): significant delay in wound closure
reduction of IL-6 protein concentrations in HNECs ([6]; 10 mM, p=0.001): 80%
reduction of IL-6 protein concentrations in HNECs ([6]; 20 mM, p=0.0001): 96%
secretion of IL-6 in nasal fibroblasts [7]: did not alter the secretion of IL-6
collagen protein concentrations in supernatants of fibroblast monolayers ([8]; 24 hours as printed, absence of ASC, p<0.0001): significantly reduced collagen protein concentrations
collagen secretion in the presence of L-Ascorbic acid-2 phosphate (ASC) ([8]; with ASC): significantly inhibited collagen secretion in a dose dependent manner
